Assay results published in patent US11578055B2, “Triazacyclododecansulfonamide (“TCD”)-based protein secretion inhibitors” (KEZAR LIFE SCIENCES, priority 2018, dated 2023).

Key:
[1] = test system: multiple myeloma cell line U266B1; test: U266 Cell Viability Assay; type: cell-based, human; settings: Homo sapiens, U-266; 48 hr, U266, Celltiter-Glo
Summary of the method: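 U266B1 myeloma cells in RPMI 1640 with 10% FBS were treated with compound dilutions for 48 h at 37° C, 5% CO2. Viability was read as CellTiter-Glo luminescence. Data for structures drawn without stereochemistry refer to stereoisomer mixtures.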

[2] = In Vitro Microsome Stability Assay (human); type: in vitro ADME; settings: human liver microsomes, 30 min w/ NADPH
Summary of the method: (§1)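 The value reported is the percentage of parent left after 30 min, calculated from analyte/IS peak-area ratios relative to time zero by LC-MS/MS. Incubations ran at 37° C in 0.1 M potassium phosphate with NADPH and microsomes (stock 20 mg/mL), with compound added from a 0.25 mM DMSO stock. Acetonitrile containing IS stopped the reactions.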

[3] = test system: PD1 signal sequence plus 10 amino acids fused to Gaussia Luciferase (PD1-ss+10aa/Gaussia Luciferase); test: Dox Induced PD1-ss-Gluc Assay; type: cell-based; settings: 24 hr, Dox inducible, 293FRT/TO cells; read-out: 24 hr Dox Inducible PD1ssGluc 293FRT/TO: Mean IC50
Summary of the method: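 Stable Flp-In 293 T-REx line expressing the fusion under tetracycline-inducible control, plated the day before assay. Compound dilutions added with doxycycline and incubated at 37 °C, 5% CO2; unspecified stereocentres mean data refer to stereoisomer mixtures.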

[4] = In Vitro Microsome Stability Assay (mouse); type: in vitro ADME; settings: mouse liver microsomes, 30 min w/ NADPH
Summary of the method: as §1

[5] = In Vitro Microsome Stability Assay (rat); type: in vitro ADME; settings: rat liver microsomes, 30 min w/ NADPH
Summary of the method: as §1

[6] = test system: full length IL-2 (amino acids 1-153) fused to Gaussia Luciferase; test: Dox Induced IL2-FL-Gluc Assay; type: cell-based; settings: 24 hr, Dox inducible, 293FRT/TO cells; read-out: 24 hr Dox Inducible IL2FLGluc 293FRT/TO: Mean IC50
Summary of the method: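 Flp-In 293 T-REx stable line expressing full-length IL-2 (aa 1-153) with C-terminal Gaussia luciferase fusion under doxycycline-inducible control. Cells plated the day before; compound dilutions added in DMSO/media containing doxycycline, incubated at 37° C, 5% CO2.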

[7] = In Vitro Microsome Stability Assay (monkey); type: in vitro ADME; settings: monkey liver microsomes, 30 min w/ NADPH
Summary of the method: as §1

[8] = test system: full length TNFα (amino acids 1-233) fused to Gaussia Luciferase; test: Dox Induced TNFα-FL-Gluc Assay; type: cell-based; settings: 24 hr, Dox inducible, 293FRT/TO cells; read-out: 24 hr Dox Inducible TNFaFLGluc 293FRT/TO: Mean IC50
Summary of the method: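 Stable Flp-In 293 T-REx line expressing doxycycline-inducible full-length TNFα fused to Gaussia luciferase; cells plated the day before, then treated with compound dilutions in doxycycline-containing medium at 37° C, 5% CO2. Unspecified stereocentres mean stereoisomer mixtures were tested.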

[9] = test system: multiple myeloma cell line NCl-H929; test: H929 Cell Viability Assay; type: cell-based, human; settings: Homo sapiens, NCI-H929, 48 h, H929, Celltiter-Glo
Summary of the method: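 NCI-H929 myeloma cells in RPMI 1640 with 10% FBS were treated with compound dilutions for 48 h at 37 °C, and viability was then read by CellTiter-Glo luminescence. Compounds drawn without stereochemistry were tested as stereoisomer mixtures.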

Row | SMILES | EC50 [1] | Liver Microsome Stability-% Left after 30 min w/ NADPH (%) Human [2] | IC50 [3] | Liver Microsome Stability-% Left after 30 min w/ NADPH (%) Mouse [4] | Liver Microsome Stability-% Left after 30 min w/ NADPH (%) Rat [5] | IC50 [6] | Liver Microsome Stability-% Left after 30 min w/ NADPH (%) Monkey [7] | IC50 [8] | EC50 [9]
1 | C[C@H]1CN(S(=O)(=O)c2ccc(N(C)C)cc2)CCCN(CC2CCCCC2)CCCN(S(=O)(=O)N2CCN(C(=O)OC(C)(C)C)CC2)C1 [A153, tert-butyl 4-{[(3S)-9-(cyclohexylmethyl)-5-[4-(dimethylamino)benzenesulfonyl]-3-methyl-1,5,9-triazacyclododecan-1-yl]sulfonyl}piperazine-1-carboxylate] | > 25000 nM | 2.57% | 1290 nM | 0.87% | 6.23% | 1260 nM | 1.26% | > 25000 nM | > 25000 nM
2 | COc1ccccc1N1CCN(S(=O)(=O)N2CCCN(CC3CCCCC3)CCCN(S(=O)(=O)c3ccc(N(C)C)cc3)C[C@H](C)C2)CC1 [A154, 4-{[(3S)-9-(cyclohexylmethyl)-5-{[4-(2-methoxyphenyl)piperazin-1-yl]sulfonyl}-3-methyl-1,5,9-triazacyclododecan-1-yl]sulfonyl}-N,N-dimethylaniline] | > 25000 nM | 7.33% | 14.9 nM | 17.5% | 12.3% | 58.7 nM | 10.2% | 504 nM | 749 nM
3 | Cc1cccc(CN2CCCN(S(=O)(=O)c3ccc(N(C)C)cc3)C[C@H](C)CN(S(=O)(=O)N3CCc4cc(Cl)ccc4C3)CCC2)c1 [A156, 4-{[(3S)-5-[(6-chloro-1,2,3,4-tetrahydroisoquinolin-2-yl)sulfonyl]-3-methyl-9-[(3-methylphenyl)methyl]-1,5,9-triazacyclododecan-1-yl]sulfonyl}-N,N-dimethylaniline] | > 25000 nM | 81.3% | 92.5 nM | 75.6% | 82.1% | 207 nM | 80.6% | 1830 nM | 3710 nM
4 | C[C@H]1CN(S(=O)(=O)c2ccc(N(C)C)cc2)CCCN(CC2CCCC2)CCCN(S(=O)(=O)N2CCc3cc(Cl)ccc3C2)C1 [A157, 4-{[(3S)-5-[(6-chloro-1,2,3,4-tetrahydroisoquinolin-2-yl)sulfonyl]-9-(cyclopentylmethyl)-3-methyl-1,5,9-triazacyclododecan-1-yl]sulfonyl}-N,N-dimethylaniline] | > 25000 nM | 21.1% | 23.3 nM | 23.3% | 32.2% | 77.4 nM | 27.3% | 584 nM | 858 nM
5 | C[C@H]1CN(CC2CCCCC2)C[C@H](C)CN(S(=O)(=O)N2CCc3cc(Cl)ccc3C2)C[C@@H](C)CN(S(=O)(=O)c2ccc(N(C)C)cc2)C1 [A160, 4-{[(3S,7S,11S)-5-[(6-chloro-1,2,3,4-tetrahydroisoquinolin-2-yl]sulfonyl]-9-(cyclohexylmethyl)-3,7,11-trimethyl-1,5,9-triazacyclododecan-1-yl]sulfonyl}-N,N-dimethylaniline] | > 25000 nM | 71.8% | 153 nM | 61.3% | 51.1% | 453 nM | 46.1% | 10700 nM | > 25000 nM
6 | Cc1cc(F)ccc1N1CC2(C1)CN(S(=O)(=O)N1CCCN(CC3CCCCC3)CCCN(S(=O)(=O)c3ccc(N(C)C)cc3)C[C@H](C)C1)C2 [A161, 4-{[(3S)-9-(cyclohexylmethyl)-5-{[6-(4-fluoro-2-methylphenyl)-2,6-diazaspiro[3.3]heptan-2-yl]sulfonyl}-3-methyl-1,5,9-triazacyclododecan-1-yl]sulfonyl}-N,N-dimethylaniline] | > 25000 nM | 20.2% | 577 nM | 26.5% | 27.3% | 726 nM | 16.7% | > 25000 nM | > 25000 nM
7 | Cc1cc(F)ccc1N1CCN(S(=O)(=O)N2CCCN(CC3CCCCC3)CCCN(S(=O)(=O)c3ccc(N(C)C)cc3)C[C@H](C)C2)[C@@H](C)C1 [A162, 4-{[(3S)-9-(cyclohexylmethyl)-5-{[(2 S)-4-(4-fluoro-2-methylphenyl)-2-methylpiperazin-1-yl]sulfonyl}-3-methyl-1,5,9-triazacyclododecan-1-yl]sulfonyl}-N,N-dimethylaniline] | > 25000 nM | 70.5% | 101 nM | 62.5% | 69.6% | 201 nM | 60.3% | 6260 nM | > 25000 nM
8 | C[C@@H]1CN(CC2CCCCC2)C[C@@H](C)CN(S(=O)(=O)N2CCc3cc(Cl)ccc3C2)C[C@@H](C)CN(S(=O)(=O)c2ccc(N(C)C)cc2)C1 [A164] | > 25000 nM | 64.8% | 455 nM | 69.0% | 57.9% | 974 nM | 40.9% | > 25000 nM | > 25000 nM
9 | C[C@H]1CN(S(=O)(=O)c2ccc(N(C)C)cc2)CCCN(CCC(F)(F)F)CCCN(S(=O)(=O)N2CCc3cc(Cl)ccc3C2)C1 [A165, 4-{[(3S)-5-[(6-chloro-1,2,3,4-tetrahydroisoquinolin-2-yl)sulfonyl]-3-methyl-9-(3,3,3-trifluoropropyl)-1,5,9-triazacyclododecan-1-yl]sulfonyl}-N,N-dimethylaniline] | > 25000 nM | 2.23% | 131 nM | 14.9% | 11.9% | 294 nM | 12.8% | 1860 nM | 4090 nM
10 | Cc1cccc2c1CCN(S(=O)(=O)N1CCCN(CC3CCCCC3)CCCN(S(=O)(=O)c3ccc(N(C)C)cc3)C[C@H](C)C1)C2 [A166, 4-{[(3S)-9-(cyclohexylmethyl)-3-methyl-5-[(5-methyl-1,2,3,4-tetrahydroisoquinolin-2-yl)sulfonyl]-1,5,9-triazacyclododecan-1-yl]sulfonyl}-N,N-dimethylaniline] | > 25000 nM | 14.0% | 16.7 nM | 26.4% | 31.3% | 30.2 nM | 18.7% | 278 nM | 548 nM
11 | C[C@H]1CN(S(=O)(=O)c2ccc(N(C)C)cc2)CCCN(CC(F)(F)F)CCCN(S(=O)(=O)N2CCc3cc(Cl)ccc3C2)C1 [A167, 4-{[(3S)-5-[(6-chloro-1,2,3,4-tetrahydroisoquinolin-2-yl)sulfonyl]-3-methyl-9-(2,2,2-trifluoroethyl)-1,5,9-triazacyclododecan-1-yl]sulfonyl}-N,N-dimethylaniline] | > 25000 nM | 5.68% | 201 nM | 18.3% | 9.19% | 412 nM | 73% | 2660 nM | 6500 nM
